Laboratory results published in paper PMC4928094, “The first characterization of multidrug and toxin extrusion (MATE/SLC47) proteins in zebrafish (Danio rerio)” (Scientific Reports, 2016).
Structures can show the parent of a compound that is named as a salt. Where two headings read alike, the source gives them in different places.

What was measured:
zebrafish Mate4 = zebrafish Mate4 (Danio rerio, UniProt U3Q0C3); experiment: DAPI inhibition assay, Mate4; assay type: cell-based; settings: for interaction with DAPI uptake (in words): co-incubation with modulator (50 μM–2 mM), Fig. 5
Method: (§1) HEK293T cells were transiently transfected as described previously[31] using the PEI (polyethyleneimine) reagent in 48-well plates. Cells were in parallel transfected with pcDNA3.1/His/LacZ plasmid and transfection efficiency was evaluated 24 h after transfection with the LacZ staining protocol.
(§2) HEK293T cells overexpressing respective single zebrafish Mate transporter were used for further experiments. […] DAPI fluorescence was measured at 360 and 460 nm […], respectively. The uptake into vector-transfected HEK293T cells (mock cells) was subtracted to obtain transporter-specific uptake.
(§3) Inhibition assays using DAPI as a fluorescent substrate were performed in the same transport medium. […] Compounds tested for interaction were checked using at least four concentrations but only a representative concentration (with the highest response or the largest concentration in solubility range) is shown.
(§4) For the purpose of IC50 calculations, data were fitted to the sigmoidal four-parameter dose-response model (variable slope),

zebrafish Mate6 = zebrafish Mate6 (Danio rerio, UniProt A1L2E7); experiment: DAPI inhibition assay, Mate6; assay type: cell-based; settings: for interaction with DAPI uptake (in words): co-incubation with modulator (50 μM–2 mM), Fig. 5; for interaction strength: class by IC50 of DAPI uptake inhibition
Method: as §1, §2, §3, §4

zebrafish Mate8 = zebrafish Mate8 (Danio rerio, UniProt A0A8M6YZ09); experiment: DAPI inhibition assay, Mate8; assay type: cell-based; settings: for interaction with DAPI uptake (in words): co-incubation with modulator (50 μM–2 mM), Fig. 5; for interaction strength: class by IC50 of DAPI uptake inhibition
Method: as §1, §2, §3, §4

zebrafish Mate3 = molecular target: T1, zebrafish Mate3 (Danio rerio, UniProt A1L1P9); experiment: DAPI inhibition assay, Mate3; assay type: cell-based; set-up: expressed in transfected cells; host or cells: HEK293T; settings: for interaction with DAPI uptake (in words): Mate3, co-incubation with modulator (50 μM–2 mM), Fig. 5
T1 sequence (A1L1P9 1-590): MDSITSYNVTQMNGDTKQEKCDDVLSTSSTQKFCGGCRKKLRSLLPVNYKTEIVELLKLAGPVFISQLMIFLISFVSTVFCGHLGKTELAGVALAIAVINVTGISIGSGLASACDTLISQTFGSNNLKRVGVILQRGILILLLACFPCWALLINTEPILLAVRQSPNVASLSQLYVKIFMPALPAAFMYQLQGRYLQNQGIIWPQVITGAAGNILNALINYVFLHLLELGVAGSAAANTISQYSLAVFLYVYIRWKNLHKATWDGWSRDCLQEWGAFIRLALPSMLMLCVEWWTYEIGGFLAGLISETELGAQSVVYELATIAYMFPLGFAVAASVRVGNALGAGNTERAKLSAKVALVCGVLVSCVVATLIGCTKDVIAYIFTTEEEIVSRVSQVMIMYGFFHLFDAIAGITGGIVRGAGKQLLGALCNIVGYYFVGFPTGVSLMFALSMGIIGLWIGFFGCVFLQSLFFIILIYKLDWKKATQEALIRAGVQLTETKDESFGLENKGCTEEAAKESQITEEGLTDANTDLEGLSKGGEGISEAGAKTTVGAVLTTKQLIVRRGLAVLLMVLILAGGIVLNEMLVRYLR
Method: as §1, §2, §3, §4

zebrafish Mate7 = zebrafish Mate7 (Danio rerio, UniProt U3PTD6); experiment: DAPI inhibition assay, Mate7; assay type: cell-based; settings: for interaction with DAPI uptake (in words): co-incubation with modulator (50 μM–2 mM), Fig. 5; for interaction strength: class by IC50 of DAPI uptake inhibition
Method: as §1, §2, §3, §4

[1] = tested on: CC[n+]1c(-c2ccccc2)c2cc(N)ccc2c2ccc(N)cc21; experiment: cells, lysate or membranes; settings: dye uptake, HEK293T, mean ± SD
Method: (§5) Calibration curves for all substrates were generated in 0.1% SDS and in the cell matrix dissolved in 0.1% SDS. Resulting linear calibration curves were the same in the SDS and in the dissolved cell matrix. Using the calibration curves, uptake was expressed as pmol of substrate per mg of protein per minute. Total cell protein content was determined according to the Bradford method[33].
(§6) All assays were performed in 3–5 independent experiments run in triplicates. […] All calculations were performed using GraphPad Prism 5.00 for Windows (GraphPad Software, San Diego, California, USA) as described below. The kinetic parameters, Km and Vmax values were calculated using the Michaelis-Menten equation,
(§7) where V is velocity (picomoles of substrate per milligram of proteins per minute), Vmax is maximal velocity, [S] is substrate concentration and Km is the Michaelis Menten constant.

[2] = substrate: CN(C)c1ccc(/C=C/c2cc[n+](C)cc2)cc1; experiment: cells, lysate or membranes; settings: dye uptake, HEK293T, mean ± SD, NT = no transport found
Method: as §5, §6, §7

[3] = substrate: COC(=O)c1ccccc1-c1c2ccc(=N)cc-2oc2cc(N)ccc12; experiment: cells, lysate or membranes; settings: dye uptake, HEK293T, mean ± SD, NT = no transport found
Method: as §5, §6, §7

[4] = Mate4, inhibition of DAPI (1 μM) uptake, n = 3, NE = no effect in the compound solubility range, read-out: IC50
[5] = Mate7, inhibition of DAPI (2.5 μM) uptake, n = 3, NE = no effect in the compound solubility range, read-out: IC50
[6] = other: Mate8, NT = no transport found
[7] = other: Mate4, NT = no transport found

zebrafish Mate6, sequence (A1L2E7 entry or part of it): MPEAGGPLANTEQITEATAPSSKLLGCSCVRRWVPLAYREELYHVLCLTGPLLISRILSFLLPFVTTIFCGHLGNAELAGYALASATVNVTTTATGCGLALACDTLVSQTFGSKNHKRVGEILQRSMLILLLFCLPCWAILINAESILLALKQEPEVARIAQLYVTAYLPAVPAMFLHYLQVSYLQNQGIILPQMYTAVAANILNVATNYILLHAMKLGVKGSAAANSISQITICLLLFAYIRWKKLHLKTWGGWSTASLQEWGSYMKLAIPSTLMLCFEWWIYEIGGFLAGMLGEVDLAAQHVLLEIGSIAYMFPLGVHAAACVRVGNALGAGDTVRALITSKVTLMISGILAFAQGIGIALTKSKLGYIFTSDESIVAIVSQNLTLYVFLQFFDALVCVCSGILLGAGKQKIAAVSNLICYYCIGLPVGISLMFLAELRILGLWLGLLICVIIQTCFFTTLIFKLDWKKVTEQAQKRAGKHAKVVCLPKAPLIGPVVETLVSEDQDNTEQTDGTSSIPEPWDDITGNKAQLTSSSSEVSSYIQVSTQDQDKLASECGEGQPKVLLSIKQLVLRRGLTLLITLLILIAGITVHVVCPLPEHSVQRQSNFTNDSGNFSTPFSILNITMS
zebrafish Mate7, sequence (U3PTD6 entry or part of it): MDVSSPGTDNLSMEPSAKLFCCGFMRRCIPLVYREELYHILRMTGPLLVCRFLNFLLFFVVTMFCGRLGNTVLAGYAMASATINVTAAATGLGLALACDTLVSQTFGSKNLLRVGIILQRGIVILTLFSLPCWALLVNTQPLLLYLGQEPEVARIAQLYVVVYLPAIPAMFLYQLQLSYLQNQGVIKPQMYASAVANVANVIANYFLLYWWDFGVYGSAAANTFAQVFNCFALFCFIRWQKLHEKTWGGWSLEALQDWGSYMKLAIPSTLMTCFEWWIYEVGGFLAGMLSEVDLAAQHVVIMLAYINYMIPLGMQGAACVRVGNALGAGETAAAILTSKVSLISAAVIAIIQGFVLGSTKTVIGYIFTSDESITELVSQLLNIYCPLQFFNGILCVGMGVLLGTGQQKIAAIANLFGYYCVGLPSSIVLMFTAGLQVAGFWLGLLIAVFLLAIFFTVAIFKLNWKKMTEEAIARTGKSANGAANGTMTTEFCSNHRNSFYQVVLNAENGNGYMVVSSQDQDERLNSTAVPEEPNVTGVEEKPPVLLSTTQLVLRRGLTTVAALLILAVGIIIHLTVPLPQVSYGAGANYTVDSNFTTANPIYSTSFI

CN1CC(=O)NC1=N [creatinine]
interaction with DAPI uptake (in words) (zebrafish Mate4; Mate4): did not interact
interaction with DAPI uptake (in words) (zebrafish Mate6; Mate6): did not interact
interaction with DAPI uptake (in words) (zebrafish Mate8; Mate8): did not interact
interaction with DAPI uptake (in words) (zebrafish Mate3): did not interact
interaction with DAPI uptake (in words) (zebrafish Mate7; Mate7): did not interact

CC[N+](CC)(CC)CC [TEA, tetraethylammonium, reference compound]
IC50 (zebrafish Mate4; [4]): 5240 µM
interaction with DAPI uptake (in words) (zebrafish Mate8; Mate8): not inhibited
interaction with DAPI uptake (in words) (zebrafish Mate3): did not interact
IC50 (zebrafish Mate7; [5]): 3310 µM

C[n+]1ccc(-c2cc[n+](C)cc2)cc1 [Paraquat, paraquat, reference compound]
IC50 (zebrafish Mate4): 462 µM
IC50 (zebrafish Mate6): 5730 µM
IC50 (zebrafish Mate8): 6290 µM
interaction strength (zebrafish Mate8; Mate8): very weak (substances with IC50 above 1000 μM were considered very weak interactors)
interaction with DAPI uptake (in words) (zebrafish Mate7; Mate7): too weak to determine the IC50

C=C[C@H]1C[N@@]2CC[C@H]1C[C@@H]2[C@@H](O)c1ccnc2ccc(OC)cc12 [Quinidine, quinidine, reference compound]
IC50 (zebrafish Mate3; read-out: IC50): 58.4 µM

C[C@H](CCC(=O)O)[C@H]1CC[C@H]2[C@@H]3CC[C@@H]4C[C@H](O)CC[C@]4(C)[C@H]3C[C@H](O)[C@]12C [Deoxycholate, deoxycholate]
IC50 (zebrafish Mate8): 274 µM
interaction strength (zebrafish Mate8; Mate8): weak (IC50 of 100–999 μM was classified as weak interaction)
IC50 (zebrafish Mate7): 203 µM
interaction strength (zebrafish Mate7; Mate7): weak (IC50 of 100–999 μM was classified as weak interaction)

C[C@]12CC[C@H](OS(=O)(=O)O)CC1=CC[C@@H]1[C@@H]2CC[C@]2(C)C(=O)CC[C@@H]12 [DHEAS, dehydroepiandrosterone sulfate]
IC50 (zebrafish Mate4; [4]): 313 µM
interaction strength (zebrafish Mate6; Mate6): moderate (IC50 of 30–99 μM indicated moderate interaction)
IC50 (zebrafish Mate6; Mate6, inhibition of DAPI (1 μM) uptake, n = 3, NE = no effect in the compound solubility range, read-out: IC50): 39.1 µM
interaction strength (zebrafish Mate8; Mate8): strong (Compounds with IC50 of 1–29 μM were designated as strong interactors)
IC50 (zebrafish Mate8; Mate8, inhibition of DAPI (1 μM) uptake, n = 3, NE = no effect in the compound solubility range, read-out: IC50): 26.9 µM
interaction strength (zebrafish Mate7; Mate7): moderate (IC50 of 30–99 μM indicated moderate interaction)
IC50 (zebrafish Mate7; [5]): 60.2 µM

C[C@]12CC[C@H]3[C@@H](CCC4=CC(=O)CC[C@@]43C)[C@@H]1CC[C@@H]2O [Testosterone, testosterone]
IC50 (zebrafish Mate4): 651 µM
interaction with DAPI uptake (in words) (zebrafish Mate4; Mate4): inhibited
IC50 (zebrafish Mate6): 39 µM
interaction strength (zebrafish Mate6; Mate6): moderate (IC50 of 30–99 μM indicated moderate interaction)
interaction with DAPI uptake (in words) (zebrafish Mate6; Mate6): inhibited
IC50 (zebrafish Mate8): 50.5 µM
interaction strength (zebrafish Mate8; Mate8): moderate (IC50 of 30–99 μM indicated moderate interaction)
interaction with DAPI uptake (in words) (zebrafish Mate8; Mate8): inhibited
IC50 (zebrafish Mate3): 669 µM
interaction with DAPI uptake (in words) (zebrafish Mate3): inhibited
IC50 (zebrafish Mate7): 42 µM
interaction strength (zebrafish Mate7; Mate7): moderate (IC50 of 30–99 μM indicated moderate interaction)
interaction with DAPI uptake (in words) (zebrafish Mate7; Mate7): inhibited

CN(C)C(=N)N=C(N)N [metformin, reference compound]
interaction with DAPI uptake (in words) (zebrafish Mate4; Mate4): did not interact
interaction with DAPI uptake (in words) (zebrafish Mate6; Mate6): did not interact
interaction with DAPI uptake (in words) (zebrafish Mate8; Mate8): did not interact
interaction with DAPI uptake (in words) (zebrafish Mate7; Mate7): did not interact

zebrafish Mate6 (Danio rerio)
Km ([1]; other: Mate6): 2.98 ± 0.18 µM
Vmax ([1]; other: Mate6): 504 ± 9.79 pmol/mg protein/min

zebrafish Mate7 (Danio rerio)
Km ([1]; other: Mate7): 0.79 ± 0.19 µM
Vmax ([1]; other: Mate7): 26.3 ± 1.82 pmol/mg protein/min

zebrafish Mate8 (Danio rerio)
Km [1, 6]: 0.85 ± 0.12 µM
Vmax [1, 6]: 17.0 ± 0.59 pmol/mg protein/min

zebrafish Mate4 (Danio rerio)
Km [1, 7]: 0.45 ± 0.08 µM
Vmax [1, 7]: 37.4 ± 2.02 pmol/mg protein/min

C[C@]12C[C@H](O)[C@H]3[C@@H](CCC4=CC(=O)CC[C@@]43C)[C@@H]1CC[C@@H]2C(=O)CO [Corticosterone, corticosterone]
IC50 (zebrafish Mate4): 238 µM
IC50 (zebrafish Mate6): 99.3 µM
interaction strength (zebrafish Mate6; Mate6): moderate (IC50 of 30–99 μM indicated moderate interaction)
IC50 (zebrafish Mate8): 22.1 µM
interaction strength (zebrafish Mate8; Mate8): strong (Compounds with IC50 of 1–29 μM were designated as strong interactors)
IC50 (zebrafish Mate7): 99.6 µM
interaction strength (zebrafish Mate7; Mate7): weak (IC50 of 100–999 μM was classified as weak interaction)

C[C@]12CCC(=O)C=C1CC[C@@H]1[C@@H]2CC[C@]2(C)C(=O)CC[C@@H]12 [Androstenedione, androstenedione]
IC50 (zebrafish Mate4): 114 µM
IC50 (zebrafish Mate6): 25.3 µM
IC50 (zebrafish Mate8): 20.1 µM
interaction strength (zebrafish Mate8; Mate8): strong (Compounds with IC50 of 1–29 μM were designated as strong interactors)
IC50 (zebrafish Mate7): 14.9 µM
interaction strength (zebrafish Mate7; Mate7): strong (Compounds with IC50 of 1–29 μM were designated as strong interactors)

B1: zebrafish Mate8 (Danio rerio) (protein)
chain: MDVSSPTTEASSMEPSTKLFCCRSVRRCIPLVYRQELYHILCMTGPLVASRILNYLLPFVITMFCGRLGNSVLAGYGMASATINITTAATGGGLALAADTLISQTFGGKNLRRVGIILQRSVLILLLFCLPCCALLINTQPILLLLRQDPEVARIAQLYVVCYLPAVPAMFLHQLQVAYLQNQGVILPQMYAGIAANVANVLTNYILLHWLELGVYGSAAANTISQIYICAFLYLYIRWKKLHVETWGGWSCDSLQEWDGYMKLAIPSTMMLCFEWWIYEVGGFLAGMLGELDLAAQHAVIMLAFINYMFPLGIQGAACVRVGNALGAGDTAGAIRTSKVSLTCTAALAVLQGLVLVSTKTVIGFLFTSDRHIVALVSKLLNVYCVLQFFDGLVCVSMGILLGSGQQKIAAVANFFGYYCIGLPLGTSLMFAAKLDVVGFWLGLLICVCVQSSFFIGVIFKFNWERVTKEAVERAGRTKISAMTAPDSITARHRENGDEYITVSAADPNVEPNATGVEEKPPVLLSTSQLVLRRGLTTLAALLILAGGITVHLIVPLPQMFYGAAANFTLNSNFTTPSSFIHSTSASL
Km ([2]; other: Mate8): 2.34 ± 0.37 µM
Vmax ([2]; other: Mate8): 22.2 ± 1.09 pmol/mg protein/min
Km ([3]; other: Mate8): 0.88 ± 0.14 µM

B2: zebrafish Mate4 (Danio rerio) (protein)
chain: MEMNSIHTEDHINGYQKEEKVEDAQLTSRSICAECLRKLRRLLPVNYKEEVMQLLKLAGPVFISQLMIFLISFVSTVFCGHLGKTELAGVALAIAVINVTGISIGSGLASACDTLISQTFGSNNLKRVGVILQRGILILLLACFPCWALLINTEPILLAVRQSPNVASLSQLYVKIFMPALPATFMYQLQGLYLQNQGIIWPQVITGAAGNILNALINYVFLYLLDLGVPGSAAANAISQYSLAVILYTYIRCMGLHKATWDGWSWDCLQEWGSFIRLALPSMLMLCAEWWTYEIGGFLAGLISEVELGAQSIVYELASVMYMFPLGFAVAAGVRVGNALGAGNTEQAKLSAKVSLVCGLLVSSVIAVVIAGTNNIIGYIFSKDEDIVLRVSQVMVMYGFVHLFDATSAITGGIVRGAGKQQIGALCNMVGYYCVGFPIGVSLMFAFNMGIVGLWIGFFTCVFLQSLFFIILIYRLDWKKATQEALIRAGVQLTEIKYESFGLENKGCTEEAAQENTEEGQTDTNTDLEGLSKGEGGITDAVALVTVGEVLTAKQLAVRRGLAFFFMLLILTGGIVLNEVLIRFVI
Km ([2]; other: Mate4): 4.49 ± 0.63 µM
Vmax ([2]; other: Mate4): 23.6 ± 1.23 pmol/mg protein/min
Km ([3]; other: Mate4): 0.32 ± 0.03 µM
